Patent publication US20040073973A1, “Plant enzyme and use thereof” (priority 1996, published 2004)

What was measured:
Type in all cases: biochemical, Ulmus glabra
[1] = tested on: Developing Elm Seed Soluble PLA2; experiment: Effects of reduction, EGTA and heat on PLA2 activity; details: for sensitivity of PLA2 activities to reducing agents: purified soluble and microsomal PLA2s; for PLA2 Activity Released [^14C] fatty acids: control 4740 dpm
Experimental: (§1) Membrane associated PLA2 activity was assayed according to Stahl et al. (1995) using sn-1-palmitoyl-sn-2-[^14C]decanoyl-sn-glycerol-3-phosphocholine as substrate. In standard assays of the solubilized microsomal activity and of the soluble activity 1-palmitoyl-2-[[…]]palmitoyl-glycerol-sn-3-phosphocholine was used as substrate and was presented as mixed micelles with the non-ionic detergent lubrol PX, in a PC/detergent molar relation of 1:10. Samples, 0.5-10 μl, were assayed for PLA2 activity by incubation at 30° C. for 5-30 min with 5 nmol of ^14C-labelled phosphatidylcholine (10,000 dpm/nmol) in a total volume of 50 μl of 50 mM Tris/HCl, pH 8.0 containing 10 mM CaCl2 and 0.06% (w/v) lubrol PX. The reaction was stopped by the addition of 400 μl of chloroform/methanol/acetic acid 50:50:1 followed by 150 μl of H2O. The samples were mixed thoroughly and centrifuged 10,000 g for 1 min. Chloroform phases containing extracted lipids were passed through mini-columns of silica gel, followed by a wash with 400 μl of chloroform. The eluates from the silica columns, containing released [^14C]palmitic acid, were collected and analysed by scintillation counting.

microsomal PLA2 = experiment: Substrate specificity of microsomal PLA2
Experimental: as §1

[2] = tested on: soluble developing elm seed PLA2; experiment: Position specificity of soluble PLA2 (partly purified fraction)
Experimental: as §1

| Compound | sensitivity of PLA2 activities to reducing agents [1] | Recovered ^14C activity in LPC (microsomal PLA2) | Recovered ^14C activity in PC (microsomal PLA2) | Recovered ^14C activity in fatty acid (microsomal PLA2) | other results |
| --- | --- | --- | --- | --- | --- |
| O[C@H](CS)[C@H](O)CS (racemic) [DTT, dithiothreitol] | sensitive |  |  |  |  |
| O=C(O)CN(CCOCCOCCN(CC(=O)O)CC(=O)O)CC(=O)O [EGTA] |  |  |  |  | PLA2 Activity Released [^14C] fatty acids ([1]; EGTA 10 mM): 170 dpm |
| OCCS [Mercaptoethanol] | sensitive |  |  |  | PLA2 Activity Released [^14C] fatty acids ([1]; Mercaptoethanol 1% (v/v)): 170 dpm |
| CCCCCCCCCCCCCCCC(=O)OC[C@H](COP(=O)([O-])OCC[N+](C)(C)C)OC(=O)CCCCCCCCC [sn-1-16:0-sn-2-[^14C]10:0-PC, sn-1-palmitoyl-sn-2-[^14C]decanoyl-sn-glycerol-3-phosphocholine] |  | 0.6 % of total recovery | 54 % of total recovery | 44 % of total recovery |  |
| CCCCCCCCCCCCCCCC(=O)OC[C@H](COP(=O)([O-])OCC[N+](C)(C)C)OC(=O)CCCCCCCCCCCCCCC [sn-1-16:0-sn-2-[^14C]16:0-PC, sn-1-palmitoyl-sn-2-[^14C]palmitoyl-sn-glycerol-sn-3-phosphocholine] |  | 0.8 % of total recovery | 65 % of total recovery | 34 % of total recovery | Recovered ^14C activity in LPC [2]: 0.6 % of total recovery; Recovered ^14C activity in PC [2]: 56 % of total recovery; Recovered ^14C activity in fatty acid [2]: 44 % of total recovery |
